Measurements: patent publication US12139492B2 (Endotarget Inc., priority 2021, dated 2024)
Where two headings read alike, the source gives them in different places.

Legend:
Mino cells = assay: Antiproliferative effect, MTS cell viability assay, Mino cells; format: cell-based; conditions: Homo sapiens, Mino mantle cell lymphoma cells, read-out: IC50 (anti-proliferation) Mino cells
Outline: (§1)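 Readout was MTS-derived formazan absorbance (490 nm) reflecting metabolically active cells. Treatment lasted 72 h over a 0–10 μM range (0.001, 0.01, 0.1, 1, 10 μM) in JeKo-1 and Mino B-cell malignancy cells.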

BTK = BTK (Homo sapiens, UniProt Q06187); assay: Degradation of BTK protein in Namalwa cells (Western blot; DC50, Dmax); conditions: for DC50: cell line not given
BTK, sequence (Q06187 whole entry): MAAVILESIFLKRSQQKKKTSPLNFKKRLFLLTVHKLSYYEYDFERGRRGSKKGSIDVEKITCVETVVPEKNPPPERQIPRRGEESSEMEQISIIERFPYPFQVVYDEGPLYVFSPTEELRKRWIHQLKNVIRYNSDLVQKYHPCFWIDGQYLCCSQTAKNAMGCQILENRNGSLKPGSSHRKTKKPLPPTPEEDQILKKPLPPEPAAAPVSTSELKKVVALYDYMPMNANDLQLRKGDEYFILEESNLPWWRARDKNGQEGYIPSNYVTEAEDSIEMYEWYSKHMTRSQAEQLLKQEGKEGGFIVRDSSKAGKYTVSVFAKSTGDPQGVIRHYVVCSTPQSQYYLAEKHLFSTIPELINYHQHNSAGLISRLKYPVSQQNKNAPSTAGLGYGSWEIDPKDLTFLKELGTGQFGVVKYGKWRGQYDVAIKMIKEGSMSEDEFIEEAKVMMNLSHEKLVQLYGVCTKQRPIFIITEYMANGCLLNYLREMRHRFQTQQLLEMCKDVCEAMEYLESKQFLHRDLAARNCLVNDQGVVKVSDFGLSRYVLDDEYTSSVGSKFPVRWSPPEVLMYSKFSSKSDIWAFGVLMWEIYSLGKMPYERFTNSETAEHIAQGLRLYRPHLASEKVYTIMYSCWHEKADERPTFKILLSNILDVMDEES

JeKo-1 cells = assay: Antiproliferative effect, MTS cell viability assay, JeKo-1 cells; format: cell-based; conditions: Homo sapiens; JeKo-1 mantle cell lymphoma cells; read-out: IC50 (anti-proliferation) JeKO-1 cells
Outline: as §1

[1] = read-out: DC50 (BTK degradation), concentration giving 50% reduction of BTK expression level
[2] = read-out: Dmax (BTK degradation)

| Dmax (BTK) [%] | DC50 (BTK; BTK degradation) [nM] | DC50 (BTK; [1]) [nM] | Dmax (BTK; [2]) [%] | SMILES | IC50 (Mino cells; MINO) [nM] | IC50 (JeKo-1 cells) [nM] | IC50 (Mino cells) [nM] |
| --- | --- | --- | --- | --- | --- | --- | --- |
| > 90 | < 10 | – | – | NC(=O)c1c(-c2ccc(Oc3ccccc3)cc2)nn2c1NCCC2C1CCN(C2CCN(C(=O)N3CCN(C4CCN(c5ccc6c(c5)CN(C5CCC(=O)NC5=O)C6=O)CC4)CC3)CC2)CC1 (stereo not drawn) [Compound 346, 7-(1′-(4-(1-(2-(2,6-dioxopiperidin-3-yl)-1-oxoisoindolin-5-yl)piperidin-4-yl)piperazine-1-carbonyl)-[1,4′-bipiperidin]-4-yl)-2-(4-phenoxyphenyl)-4,5,6,7-tetrahydropyrazolo[1,5-a]pyrimidine-3-carboxamide] | < 1000 | 1000 to 10000 | – |
| – | – | < 10 | > 90 | Nc1ncnc2c1c(-c1ccc(Oc3ccccc3)cc1)nn2C1CCN(CCN2CCC(CN3CCN(c4ccc(N5CCC(=O)NC5=O)cc4)CC3)CC2)CC1 [Compound 554, 1-(4-(4-((1-(2-(4-(4-amino-3-(4-phenoxyphenyl)-1H-pyrazolo[3,4-d]pyrimidin-1-yl)piperidin-1-yl)ethyl)piperidin-4-yl)methyl)piperazin-1-yl)phenyl)dihydropyrimidine-2,4(1H,3H)-dione] | < 1000 | < 1000 | – |
| – | – | 10 to 50 | > 75 | NC(=O)c1c(-c2ccc(Oc3ccccc3)cc2)nn2c1NCC[C@H]2C1CCN(C2CCN(C(=O)N3CCC(CN4CCC(c5ccc6c(c5)C(=O)N(C5CCC(=O)NC5=O)C6=O)CC4)CC3)CC2)CC1 (stereo partly drawn) [Compound 395, (7S)-7-(1′-(4-((4-(2-(2,6-dioxopiperidin-3-yl)-1,3-dioxoisoindolin-5-yl)piperidin-1-yl)methyl)piperidine-1-carbonyl)-[1,4′-bipiperidin]-4-yl)-2-(4-phenoxyphenyl)-4,5,6,7-tetrahydropyrazolo[1,5-a]pyrimidine-3-carboxamide] | 1000 to 10000 | 1000 to 10000 | – |
| > 90 | 10 to 50 | – | – | Nc1ncnc2c1c(-c1ccc(Oc3ccccc3)cc1)nn2C1CCN(CC2CCN(CCN3CCC(c4ccc5c(c4)CN(C4CCC(=O)NC4=O)C5=O)CC3)CC2)CC1 (stereo not drawn) [Compound 206, 3-(5-(1-(2-(4-((4-(4-amino-3-(4-phenoxyphenyl)-1H-pyrazolo[3,4-d]pyrimidin-1-yl)piperidin-1-yl)methyl)piperidin-1-yl)ethyl)piperidin-4-yl)-1-oxoisoindolin-2-yl)piperidine-2,6-dione] | < 1000 | < 1000 | – |
| > 90 | 10 to 50 | – | – | NC(=O)c1c(-c2ccc(Oc3ccccc3)cc2)nn2c1NCCC2C1CCN(C(=O)N2CCN(CCN3CCN(c4ccc5c(c4)C(=O)N(C4CCC(=O)NC4=O)C5=O)CC3)CC2)CC1 (stereo not drawn) [Compound 281, 7-(1-(4-(2-(4-(2-(2,6-dioxopiperidin-3-yl)-1,3-dioxoisoindolin-5-yl)piperazin-1-yl)ethyl)piperazine-1-carbonyl)piperidin-4-yl)-2-(4-phenoxyphenyl)-4,5,6,7-tetrahydropyrazolo[1,5-a]pyrimidine-3-carboxamide] | 1000 to 10000 | 1000 to 10000 | – |
| > 75 | > 50 | – | – | NC(=O)c1c(-c2ccc(Oc3ccccc3)cc2)nn2c1NCCC2C1CCN(CC2CCN(CCC3CCN(c4ccc5c(c4)CN(C4CCC(=O)NC4=O)C5=O)CC3)CC2)CC1 (stereo not drawn) [Compound 318, 7-(1-((1-(2-(1-(2-(2,6-dioxopiperidin-3-yl)-1-oxoisoindolin-5-yl)piperidin-4-yl)ethyl)piperidin-4-yl)methyl)piperidin-4-yl)-2-(4-phenoxyphenyl)-4,5,6,7-tetrahydropyrazolo[1,5-a]pyrimidine-3-carboxamide] | 1000 to 10000 | > 10000 | – |
| – | – | 10 to 50 | > 90 | Nc1ncnc2c1c(-c1ccc(Oc3ccccc3)cc1)nn2C1CCN(C[C@H]2CCN(CC3CN(c4ccc5c(c4)C(=O)N(C4CCC(=O)NC4=O)C5=O)C3)C2)CC1 (stereo partly drawn) [Compound 423a, 5-(3-(((R)-3-((4-(4-amino-3-(4-phenoxyphenyl)-1H-pyrazolo[3,4-d]pyrimidin-1-yl)piperidin-1-yl)methyl)pyrrolidin-1-yl)methyl)azetidin-1-yl)-2-(2,6-dioxopiperidin-3-yl)isoindoline-1,3-dione] | < 1000 | 1000 to 10000 | – |
| – | – | < 10 | > 90 | Nc1ncnc2c1c(-c1ccc(Oc3ccccc3)cc1)nn2C1CCC(C(=O)N2CC(C3CCN(c4ccc5c(c4)C(=O)N(C4CCC(=O)NC4=O)C5=O)CC3)C2)CC1 (stereo not drawn) [Compound 513, 5-(4-(1-(4-(4-amino-3-(4-phenoxyphenyl)-1H-pyrazolo[3,4-d]pyrimidin-1-yl)cyclohexane-1-carbonyl)azetidin-3-yl)piperidin-1-yl)-2-(2,6-dioxopiperidin-3-yl)isoindoline-1,3-dione] | < 1000 | < 1000 | – |
| > 90 | 10 to 50 | – | – | NC(=O)c1c(-c2ccc(Oc3ccccc3)cc2)nn2c1NCCC2C1CCN(C2CCN(C(=O)N3CCC(N4CCN(c5ccc6c(c5)C(=O)N(C5CCC(=O)NC5=O)C6=O)CC4)CC3)CC2)CC1 (stereo not drawn) [Compound 341, 7-(1′-(4-(4-(2-(2,6-dioxopiperidin-3-yl)-1,3-dioxoisoindolin-5-yl)piperazin-1-yl)piperidine-1-carbonyl)-[1,4′-bipiperidin]-4-yl)-2-(4-phenoxyphenyl)-4,5,6,7-tetrahydropyrazolo[1,5-a]pyrimidine-3-carboxamide] | 1000 to 10000 | < 1000 | – |
| > 75 | 10 to 50 | – | – | Nc1ncnc2c1c(-c1ccc(Oc3ccccc3)cc1)nn2C1CCN(C2CCN(CCCN3CCC(c4ccc5c(c4)CN(C4CCC(=O)NC4=O)C5=O)CC3)CC2)CC1 (stereo not drawn) [Compound 224, 3-(5-(1-(3-(4-(4-amino-3-(4-phenoxyphenyl)-1H-pyrazolo[3,4-d]pyrimidin-1-yl)-[1,4′-bipiperidin]-1′-yl)propyl)piperidin-4-yl)-1-oxoisoindolin-2-yl)piperidine-2,6-dione] | 1000 to 10000 | 1000 to 10000 | – |
| > 90 | < 10 | – | – | NC(=O)c1c(-c2ccc(Oc3ccccc3)cc2)nn2c1NCCC2C1CCN(C2CCN(C(=O)N3CCN(CC4CCN(c5ccc6c(c5)CN(C5CCC(=O)NC5=O)C6=O)CC4)CC3)CC2)CC1 (stereo not drawn) [Compound 352, 7-(1′-(4-((1-(2-(2,6-dioxopiperidin-3-yl)-1-oxoisoindolin-5-yl)piperidin-4-yl)methyl)piperazine-1-carbonyl)-[1,4′-bipiperidin]-4-yl)-2-(4-phenoxyphenyl)-4,5,6,7-tetrahydropyrazolo[1,5-a]pyrimidine-3-carboxamide] | < 1000 | 1000 to 10000 | – |
| – | – | > 50 | > 50 | Nc1ncnc2c1c(-c1ccc(Oc3ccccc3)cc1)nn2C1CCN(C2CCN(CCCC#Cc3ccc(N4CCC(=O)NC4=O)cc3)C2)CC1 (stereo not drawn) [Compound 537, 1-(4-(5-(3-(4-(4-amino-3-(4-phenoxyphenyl)-1H-pyrazolo[3,4-d]pyrimidin-1-yl)piperidin-1-yl)pyrrolidin-1-yl)pent-1-yn-1-yl)phenyl)dihydropyrimidine-2,4(1H,3H)-dione] | > 10000 | > 10000 | – |
| > 75 | 10 to 50 | – | – | NC(=O)c1c(-c2ccc(Oc3ccccc3)cc2)nn2c1NCCC2C1CCN(CC2CCN(C(=O)N3CCC(CC4CCN(c5ccc6c(c5)C(=O)N(C5CCC(=O)NC5=O)C6=O)CC4)CC3)CC2)CC1 (stereo not drawn) [Compound 373, 7-(1-((1-(4-((1-(2-(2,6-dioxopiperidin-3-yl)-1,3-dioxoisoindolin-5-yl)piperidin-4-yl)methyl)piperidine-1-carbonyl)piperidin-4-yl)methyl)piperidin-4-yl)-2-(4-phenoxyphenyl)-4,5,6,7-tetrahydropyrazolo[1,5-a]pyrimidine-3-carboxamide] | 1000 to 10000 | > 10000 | – |
| – | – | < 10 | > 90 | Nc1ncnc2c1c(-c1ccc(Oc3ccccc3)cc1)nn2C1CCN(C2CCN(CCCN3CCC(c4ccc(N5CCC(=O)NC5=O)cc4)CC3)C2)CC1 (stereo not drawn) [Compound 576, 1-(4-(1-(3-(3-(4-(4-amino-3-(4-phenoxyphenyl)-1H-pyrazolo[3,4-d]pyrimidin-1-yl)piperidin-1-yl)pyrrolidin-1-yl)propyl)piperidin-4-yl)phenyl)dihydropyrimidine-2,4(1H,3H)-dione] | 1000 to 10000 | < 1000 | – |
| – | – | – | < 50 | Nc1ncnc2c1c(-c1ccc(Oc3ccccc3)cc1)nn2C1CCN(CC2CN(CC3CN(c4ccc5c(c4)CN(C4CCC(=O)NC4=O)C5=O)C3)C2)CC1 (stereo not drawn) [Compound 442, 3-(5-(3-((3-((4-(4-amino-3-(4-phenoxyphenyl)-1H-pyrazolo[3,4-d]pyrimidin-1-yl)piperidin-1-yl)methyl)azetidin-1-yl)methyl)azetidin-1-yl)-1-oxoisoindolin-2-yl)piperidine-2,6-dione] | > 10000 | > 10000 | – |

| SMILES | Dmax (BTK) [%] | DC50 (BTK; BTK degradation) [nM] | DC50 (BTK; [1]) [nM] | Dmax (BTK; [2]) [%] | IC50 (Mino cells; MINO) [nM] | IC50 (JeKo-1 cells) [nM] | IC50 (Mino cells) [nM] |
| --- | --- | --- | --- | --- | --- | --- | --- |
| Nc1ncnc2c1c(-c1ccc(Oc3ccccc3)cc1)nn2C1CCN(CCN2CCC(N3CCN(c4ccc5c(c4)C(=O)N(C4CCC(=O)NC4=O)C5=O)CC3)C2)CC1 (stereo not drawn) [Compound 459, 5-(4-(1-(2-(4-(4-amino-3-(4-phenoxyphenyl)-1H-pyrazolo(3,4-d)pyrimidin-1-yl)piperidin-1-yl)ethyl)pyrrolidin-3-yl)piperazin-1-yl)-2-(2,6-dioxopiperidin-3-yl)isoindoline-1,3-dione] | – | – | < 10 | > 90 | – | < 1000 | < 1000 |
